# Measured values published in patent US12227509B2, “Dihydropyrazolopyrazinone derivative having MGAT2 inhibitory activity” (Shionogi & Co., Ltd., priority 2019, dated 2025).
# Target: recombinant human MGAT2 (Homo sapiens (Human), UniProt Q3SYC2)
# Assay: Measurement of human MGAT2 inhibitory activity
# Format: biochemical
# Details: concentration exhibiting 50% enzyme inhibition; recombinant human MGAT2, 2-Oleoylglycerol/Oleoyl-CoA
# Description: A full-length human MGAT2 gene to which a Flag-tag had been added at the N-terminal was inserted into pFastBac (from Invitrogen). A recombinant baculovirus was produced in accordance with the protocol for a Bac-to-Bac baculovirus expression system (produced by Invitrogen), and Sf-9 cells were infected therewith. The cells were collected and sonicated, and then the membrane fraction was collected through centrifugation. Western blotting analysis with an anti-Flag antibody was performed for the membrane fraction to confirm expression, and the membrane fraction was used as a recombinant human MGAT2 enzyme solution.
# Solutions of the compounds of the present invention in DMSO were each aliquoted into 0.2-μL portions in a 384-well polystyrene microplate produced by Corning Incorporated, and 5 μL of an enzyme solution prepared with an assay buffer (100 mmol/L phosphate buffer (pH 7.4) containing 2 mmol/L DTT) and 5 μL of a substrate solution (100 mmol/L phosphate buffer (pH 7.4), 30 μmol/L 2-Oleoylglycerol, 10 μmol/L Oleoyl-CoA) were added thereto, and the resultant was stirred and centrifuged, and incubated in a moist chamber at room temperature for 1 hour. After enzymatic reaction, 50 μL of a quenching solution (containing 0.2 μmol/L Diolein-d5, 0.4% formic acid, and 50% isopropanol) containing Internal Standard (IS) was added to terminate the reaction, and the resultant was sealed in a plate produced by Shimadzu GLC Ltd., and then stirred and centrifuged, and measurement was performed by using an electrospray ionization method with a RapidFire360 and Agilent 6550 Q-TOF mass spectrometer. Diolein as a reaction product (P) of 2-Oleoylglycerol as the substrate and an ammonium adduct ion of the IS were detected, and the peak intensity ratio, P/IS, was calculated from the peak heights to evaluate the inhibitory activity. Inhibitory activities with/without addition of enzyme were defined as Control (+)/Control (−), respectively, and the respective % inhibitions were defined as 0% inhibition and 100% inhibition. The inhibitory activity was calculated from formula below with TIBCO Spotfire (produced by TIBCO Software Inc.)
# Inhibitory activity (%)=[1−{Sample−Control (−)}/{Control (+)−Control (−)}]*100 where Sample indicates a peak intensity ratio: P/IS, when the compound of the present invention was added.
# recombinant human MGAT2, sequence (Q3SYC2 whole entry): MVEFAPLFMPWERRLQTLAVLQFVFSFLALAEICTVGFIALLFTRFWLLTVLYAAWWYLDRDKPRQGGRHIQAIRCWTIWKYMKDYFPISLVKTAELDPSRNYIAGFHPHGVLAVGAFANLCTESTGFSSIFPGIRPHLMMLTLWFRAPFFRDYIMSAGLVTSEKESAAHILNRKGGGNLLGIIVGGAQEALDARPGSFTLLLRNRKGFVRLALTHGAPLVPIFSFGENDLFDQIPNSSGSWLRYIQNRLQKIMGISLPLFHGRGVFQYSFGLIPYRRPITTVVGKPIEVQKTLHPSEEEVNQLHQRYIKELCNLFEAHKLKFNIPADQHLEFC
row,SMILES,IC50
1,CS(=O)(=O)CC(=O)Nc1c(-c2cc(F)c(F)c(F)c2)nn2c1C(=O)N[C@@]1(CCc3cc(OCC(F)(F)F)ccc31)C2 [Compound I-36],0.617 nM
2,Cc1cc(F)ccc1-c1nn2c(c1NC(=O)CS(C)(=O)=O)C(=O)N[C@]1(CCc3cc(OCC(F)(F)F)ccc31)C2 [Compound I-91],19.5 nM
3,CCOc1ccc2c(c1)CC[C@]21Cn2nc(-c3ccc(F)c(F)c3)c(NC(=O)CS(C)(=O)=O)c2C(=O)N1 [Compound I-117],4.83 nM
4,CS(=O)(=O)CC(=O)Nc1c(-c2ccc(OC(F)F)cc2)nn2c1C(=O)N[C@]1(CCc3cc(OCC(F)(F)F)ccc31)C2 [Compound I-84],2.51 nM
5,CS(=O)(=O)CC(=O)Nc1c(-c2ccc(Cl)c(F)c2)nn2c1C(=O)N[C@@]1(CCc3cc(F)cc(F)c31)C2 [Compound I-138],3.55 nM
6,CCOc1ccc2c(c1)OCC[C@@]21Cn2nc(-c3ccc(F)cc3)c(NC(=O)CS(C)(=O)=O)c2C(=O)N1 [Compound I-134],4.49 nM
7,Cc1ccc(-c2nn3c(c2NC(=O)CS(C)(=O)=O)C(=O)N[C@]2(CCc4cc(OCC(F)(F)F)ccc42)C3)cc1F [Compound I-90],1.1 nM
8,CS(=O)(=O)CC(=O)Nc1c(-c2ccc(F)cc2)nn2c1C(=O)N[C@]1(CCOc3cc(OCC(F)(F)F)ccc31)C2 [Compound I-70],2.6 nM
9,CS(=O)(=O)CC(=O)Nc1c(CCC2CC2)nn2c1C(=O)N[C@@]1(CCOc3cc(F)cc(F)c31)C2 [Compound I-120],2.57 nM
10,CS(=O)(=O)CC(=O)Nc1c(-c2ccc(C(F)F)cc2)nn2c1C(=O)N[C@@]1(CCc3cc(OCC(F)(F)F)ccc31)C2 [Compound I-24],1.37 nM
11,CS(=O)(=O)CC(=O)Nc1c(-c2ccccc2)nn2c1C(=O)N[C@]1(CCc3cc(OCC(F)(F)F)ccc31)C2 [Compound I-2],6.6 nM
12,CS(=O)(=O)CC(=O)Nc1c(-c2ccc(OC3CC3)cc2)nn2c1C(=O)N[C@@]1(CCc3cc(OCC(F)(F)F)ccc31)C2 [Compound I-30],193 nM
13,CS(=O)(=O)CC(=O)Nc1c(-c2ccc(C#N)c(F)c2)nn2c1C(=O)N[C@@]1(CCc3cc(OCC(F)(F)F)ccc31)C2 [Compound I-51],1.32 nM
14,CS(=O)(=O)CC(=O)Nc1c(-c2ccc(OC(F)(F)F)cc2)nn2c1C(=O)N[C@]1(CCc3cc(OCC(F)(F)F)ccc31)C2 [Compound I-83],4.37 nM
15,Cc1ccc(-c2nn3c(c2NC(=O)C2CS(=O)(=O)C2)C(=O)N[C@]2(CCc4cc(OCC(F)(F)F)ccc42)C3)nc1 [Compound I-40],7.33 nM
16,COc1ccc(-c2nn3c(c2NC(=O)CS(C)(=O)=O)C(=O)N[C@]2(CCc4cc(OCC(F)(F)F)ccc42)C3)cc1 [Compound I-82],6.51 nM
17,CCOc1ccc2c(c1)CC[C@@]21Cn2nc(-c3ccc(F)cc3)c(NC(=O)CS(C)(=O)=O)c2C(=O)N1 [Compound I-68],4.04 nM
18,COCOc1ccc2c(c1)CCC21Cn2nc(-c3ccc(C#N)cn3)c(NC(=O)CS(C)(=O)=O)c2C(=O)N1 (stereo not drawn) [Compound I-54],5.88 nM
19,COc1ccc(-c2nn3c(c2NC(=O)CS(C)(=O)=O)C(=O)N[C@@]2(CCc4cc(OCC(F)(F)F)ccc42)C3)cc1 [Compound I-26],20.1 nM
20,"C[S@](=N)(=O)CC(=O)Nc1c(-c2ccc(F)c(Cl)c2)nn2c1C(=O)N[C@@]1(CCc3cc(OCC(F)(F)F)ccc31)C2 (single isomer, unassigned) [Compound I-107]",1.19 nM
21,CS(=O)(=O)CC(=O)Nc1c(-c2ccc(S(C)(=O)=O)cc2)nn2c1C(=O)N[C@]1(CCc3cc(OCC(F)(F)F)ccc31)C2 [Compound I-96],208 nM
22,Cc1ccc(-c2nn3c(c2NC(=O)CS(=O)(=O)N(C)C)C(=O)N[C@@]2(CCc4cc(OCC(F)(F)F)ccc42)C3)nc1 [Compound I-128],91.9 nM
23,CS(=O)(=O)CC(=O)Nc1c(-c2ccc(F)cc2)nn2c1C(=O)N[C@@]1(CCc3cc(OCC(F)(F)F)ccc31)C2 [Compound I-23],1.2 nM
24,CS(=O)(=O)CC(=O)Nc1c(-c2ccc(C#N)cc2)nn2c1C(=O)N[C@@]1(CCc3cc(OCC(F)(F)F)ccc31)C2 [Compound I-31],2.23 nM
25,"C[S@@](=N)(=O)CC(=O)Nc1c(-c2ccc(F)c(Cl)c2)nn2c1C(=O)N[C@@]1(CCc3cc(OCC(F)(F)F)ccc31)C2 (single isomer, unassigned) [Compound I-72]",6.43 nM

row,SMILES,IC50
1,CS(=O)(=O)CC(=O)Nc1c(-c2ccc(OC(F)(F)F)cc2)nn2c1C(=O)N[C@@]1(CCc3cc(OCC(F)(F)F)ccc31)C2 [Compound I-27],7.01 nM
2,N#Cc1ccc(-c2nn3c(c2NC(=O)C2CS(=O)(=O)C2)C(=O)N[C@@]2(CCc4cc(OCC(F)(F)F)ccc42)C3)nc1 [Compound I-15],2.56 nM
3,Cc1c(F)cc(-c2nn3c(c2NC(=O)CS(C)(=O)=O)C(=O)N[C@@]2(CCc4cc(OCC(F)(F)F)ccc42)C3)cc1F [Compound I-53],1.75 nM
4,CCOc1ccc2c(c1)CC[C@]21Cn2nc(CCC3CC3)c(NC(=O)CS(C)(=O)=O)c2C(=O)N1 [Compound I-103],7.03 nM
5,CS(=O)(=O)CC(=O)Nc1c(CCC2CC2)nn2c1C(=O)N[C@]1(CCc3cc(F)cc(F)c31)C2 [Compound I-149],23.4 nM
6,Cc1ccc(-c2nn3c(c2NC(=O)C2CS(=O)(=O)C2)C(=O)N[C@@]2(CCc4cc(OCC(F)(F)F)ccc42)C3)nc1 [Compound I-44],13.4 nM
7,CS(=O)(=O)CC(=O)Nc1c(-c2cc(F)cc(F)c2)nn2c1C(=O)N[C@@]1(CCc3cc(OCC(F)(F)F)ccc31)C2 [Compound I-50],2.53 nM
8,CNS(=O)(=O)CC(=O)Nc1c(-c2ccc(C#N)cn2)nn2c1C(=O)N[C@]1(CCc3cc(OCC(F)(F)F)ccc31)C2 [Compound I-11],1.08 nM
9,CS(=O)(=O)CC(=O)Nc1c(-c2ccc(C(F)F)cc2)nn2c1C(=O)N[C@@]1(CCc3cc(F)cc(F)c31)C2 [Compound I-131],9.33 nM
10,CS(=O)(=O)CC(=O)Nc1c(-c2ccc(C#N)c(F)c2)nn2c1C(=O)N[C@]1(CCc3cc(OCC(F)(F)F)ccc31)C2 [Compound I-99],1.28 nM
11,N#Cc1ccc(-c2nn3c(c2NC(=O)C2CS(=O)(=O)C2)C(=O)N[C@]2(CCc4cc(OCC(F)(F)F)ccc42)C3)nc1 [Compound I-10],1.91 nM
12,CCCCCc1nn2c(c1NC(=O)CS(C)(=O)=O)C(=O)N[C@]1(CCOc3cc(OCC(F)(F)F)ccc31)C2 [Compound I-114],3.1 nM
13,COc1ccc(-c2nn3c(c2NC(=O)CS(C)(=O)=O)C(=O)N[C@@]2(CCc4cc(OCC(F)(F)F)ccc42)C3)cc1F [Compound I-52],15.2 nM
14,CS(=O)(=O)CC(=O)Nc1c(CCC2CC2)nn2c1C(=O)NC1(CN(c3ccc(C(F)(F)F)cc3)C1)C2 [Compound I-64],1.26 nM
15,CCS(=O)(=O)CC(=O)Nc1c(-c2ccc(C)cn2)nn2c1C(=O)N[C@@]1(CCc3cc(OCC(F)(F)F)ccc31)C2 [Compound I-127],2.77 nM
16,CS(=O)(=O)CC(=O)Nc1c(-c2ccc(F)cn2)nn2c1C(=O)N[C@@]1(CCc3cc(F)cc(F)c31)C2 [Compound I-121],6.02 nM
17,CS(=O)(=O)CC(=O)Nc1c(-c2ccc(F)cc2)nn2c1C(=O)N[C@@]1(CCOc3cc(F)cc(F)c31)C2 [Compound I-125],2.8 nM
18,N#Cc1ccc(-c2nn3c(c2NC(=O)CC(F)(F)F)C(=O)N[C@]2(CCc4cc(OCC(F)(F)F)ccc42)C3)nc1 [Compound I-9],22.5 nM
19,CC(C)(O)c1ccc(-c2nn3c(c2NC(=O)CS(C)(=O)=O)C(=O)N[C@@]2(CCc4cc(OCC(F)(F)F)ccc42)C3)cc1 [Compound I-37],21.2 nM
20,CS(=O)(=O)CC(=O)Nc1c(-c2ccc(C3CC3)cc2)nn2c1C(=O)N[C@@]1(CCc3cc(OCC(F)(F)F)ccc31)C2 [Compound I-29],4.91 nM
21,CNS(=O)(=O)CC(=O)Nc1c(-c2ccc(C#N)cn2)nn2c1C(=O)N[C@@]1(CCc3cc(OCC(F)(F)F)ccc31)C2 [Compound I-16],1.44 nM
22,CS(=O)(=O)CC(=O)Nc1c(-c2ccc(OC3CC3)cc2)nn2c1C(=O)N[C@]1(CCc3cc(OCC(F)(F)F)ccc31)C2 [Compound I-86],131 nM
23,CCOc1ccc2c(c1)CC[C@@]21Cn2nc(CCC3CC3)c(NC(=O)CS(C)(=O)=O)c2C(=O)N1 [Compound I-111],7.61 nM
24,CS(=O)(=O)CC(=O)Nc1c(CCC2CC2)nn2c1C(=O)N[C@]1(CCOc3cc(OCC(F)(F)F)ccc31)C2 [Compound I-110],2.14 nM
25,Cc1ccc(-c2nn3c(c2NC(=O)CS(C)(=O)=O)C(=O)NC2(CCc4cc(OCc5ccccc5)ccc42)C3)nc1 (stereo not drawn) [Compound I-55],1 nM

# Same assay, conditions: concentration exhibiting 50% enzyme inhibition; recombinant human MGAT2, 2-Oleoylglycerol/Oleoyl-CoA; listed as 1-62
row,SMILES,IC50
1,"CS(=O)(=O)CC(=O)Nc1c(CCCC(F)(F)F)nn2c1C(=O)NC1(CCc3cc(OCC(F)(F)F)ccc31)C2 (single isomer, unassigned) [Compound I-62]",1.39 nM
